In PubChem BioAssay AID686930 (Broad Institute, 2013):
“And” between values parts separate entries of the source, which are not always exact repeats. Equal entries are not always repeated. The source made the active and inactive calls. No rule for the calls is given here.

Tests used:
[1] = Confirmatory dose response, V. cholerae WN1103 δluxq inducers of light production, absence of autoinducers (AID 686930); conditions: V. cholerae WN1103 ΔluxQ, lux luminescence, 6 h
[2] = test system: V. cholerae WN1103 ΔluxQ, lux luminescence, 6 h; experiment: as above

Row | Structure (SMILES) | light induction (activation) ([1]; at 100 µM (top of the series)) | light induction (activation) ([1]; at 80 µM (top of the series)) | AC40 [2] | other results
1 | Cn1nc(NC(=O)c2ccco2)c2cc3ccc(C(C)(C)C)cc3nc21 | -0.007% (inactive) |  |  | 
2 | Cc1ccc2cc3c(NC(=O)c4ccoc4)nn(C)c3nc2c1 |  | 6.06% (inactive) |  | 
3 | COc1ccc2cc3c(NC(=O)c4ccco4)nn(C)c3nc2c1 |  |  | 0.901 µM | 
4 | COc1ccc2c(=O)ncn(-c3cccc(Cl)c3)c2c1 |  | 0.054% (inactive) |  | 
5 | CCCCCCCCCC(=O)C(O)CC (configuration not stated) |  |  | 0.848 µM | 
6 | CC(C)c1ccc2cc3c(NC(=O)c4ccco4)nn(C)c3nc2c1 | 0.362% (inactive) |  |  | 
7 | O=C(CSc1nc2c(c(=O)[nH]1)CCCC2)NC1CCCCC1 |  | 1.52% (inactive) |  | 
8 | Cc1nc(=O)c2ccccc2n1-c1cccc(Cl)c1 |  |  | 18.1 µM | 
9 | O=C(Cc1ccc(-c2ccccc2)cc1)NC1CCC1 |  |  | 5.06 µM | 
10 | O=c1ncn(-c2cccc(Cl)c2)c2ccccc12 |  |  | 0.0667 µM and 0.362 µM | 
11 | O=C(Nc1nnc(-c2ccc3c(c2)OCCO3)o1)C1CC1 | 0.003% (inactive) |  |  | 
12 | O=S(=O)(Nc1nnc(-c2ccc3c(c2)OCCO3)o1)c1ccc(Cl)cc1 | -0.019% (inactive) |  |  | 
13 | O=c1ncn(-c2cccc(F)c2)c2ccccc12 |  |  | 0.302 µM | 
14 | CC(C)(C)COC(=O)CSc1n[nH]c(=O)[nH]c1=O |  |  | 18.9 µM | 
15 | Cn1nc(NC(=O)c2ccco2)c2cc3ccccc3nc21 |  |  | 4.12 µM | 
16 | CCOC(=O)c1ccccc1Nc1cccc(Cl)c1 |  | 0.033% (inactive) |  | 
17 | O=c1[nH]cnc2ccccc12 |  | 0.044% (inactive) |  | 
18 | O=C(Nc1nnc(-c2cccnc2)o1)C1CCC1 | -0.007% (inactive) |  |  | 
19 | O=C(Nc1nnc(-c2ccc3c(c2)OCCO3)o1)C1CCCC1 |  | 0.121% (inactive) |  | 
20 | O=C(Nc1nnc(-c2cccc(Cl)c2)o1)C1CCCCC1 |  | 0.053% (inactive) |  | 
21 | COc1ccccc1-c1nnc(NC(=O)C2CCCCC2)o1 |  |  | > 100 µM (inactive) | 
22 | O=C(CSc1nc2ccccc2c(=O)[nH]1)NC1CCCCC1 |  | 0.011% (inactive) |  | 
23 | O=c1ncn(Cc2ccc(Cl)cc2)c2ccccc12 |  | 3.21% (inactive) |  | 

Row | Structure (SMILES) | light induction (activation) ([1]; at 100 µM (top of the series)) | light induction (activation) ([1]; at 80 µM (top of the series)) | AC40 [2] | other results
24 | O=C(Nc1nnc(-c2ccccc2Cl)o1)C1CCCCC1 | 0.001% (inactive) |  |  | 
25 | O=c1ncn(-c2cccc(Cl)c2)c2ccc(Cl)cc12 |  |  | 1.33 µM | 
26 | CN(C)/C=N/c1nnc(-c2ccc3c(c2)OCCO3)o1 | 0.028% (inactive) |  |  | 
27 | O=C(Nc1nnc(-c2cccnc2)o1)C1CCCCC1 | 7.84% (inactive) |  |  | 
28 | CCc1nc(=O)c2ccccc2n1-c1cccc(Cl)c1 |  | 0.68% (inactive) |  | 
29 | COc1cccc(-c2nnc(NC(=O)C3CCCCC3)o2)c1 | 0.041% (inactive) |  |  | 
30 | O=c1ncn(-c2cc(Cl)cc(Cl)c2)c2ccccc12 |  |  | 1.09 µM | 
31 | Cc1ccc(-n2cnc(=O)c3ccccc32)cc1Cl |  | 0.708% (inactive) |  | 
32 | COc1ccc(S(=O)(=O)Nc2nnc(-c3ccc4c(c3)OCCO4)o2)cc1 | -0.015% (inactive) |  |  | 
33 | O=C(Nc1nnc(-c2ccncc2)o1)C1CCC1 | 0.061% (inactive) |  |  | 
34 | Cc1cccc(-n2cnc(=O)c3ccccc32)c1 |  |  | 0.199 µM | 
35 | Cc1cc2cc3c(NC(=O)c4ccco4)nn(C)c3nc2cc1C |  |  | 71.7 µM | 
36 | Cc1ccc2cc3c(NC(=O)c4ccccn4)nn(C)c3nc2c1 | -0.007% (inactive) |  |  | 
37 | Cc1cc(F)c2cc3c(NC(=O)c4ccco4)nn(C)c3nc2c1 |  |  | 47 µM | 
38 | Cc1cc(F)cc2nc3c(cc12)c(NC(=O)c1ccco1)nn3C |  |  | 27.1 µM | 
39 | CCn1nnnc1N | 0.029% (inactive) |  |  | 
40 | O=c1ncn(-c2ccc(Cl)cc2)c2ccccc12 |  | 0.086% (inactive) |  | 
41 | CCn1nnnc1NCc1ccc(C(C)C)cc1 |  |  | 0.255 µM | 
42 | O=C(Nc1nnc(-c2ccc3c(c2)OCCO3)o1)C(F)(F)c1ccccc1 | -0.027% (inactive) |  |  | 
43 | Cc1ccc2c(c1)c(=O)ncn2-c1cccc(Cl)c1 |  |  | 1.45 µM | 
44 | NC(=O)c1ccccc1Nc1cccc(Cl)c1 |  | 0.32% (inactive) |  | 
45 | O=C1C(=O)N(Cc2cccc(Cl)c2)c2ccccc21 |  | 0.237% (inactive) |  | 
46 | O=C(O)c1ccccc1Nc1cccc(Cl)c1 |  | 0.041% (inactive) |  | 

Row | Structure (SMILES) | light induction (activation) ([1]; at 100 µM (top of the series)) | light induction (activation) ([1]; at 80 µM (top of the series)) | AC40 [2] | other results
47 | O=c1nc(-c2ccccc2)n(-c2cccc(Cl)c2)c2ccccc12 |  | -0.003% (inactive) |  | 
48 | O=c1ncn(-c2ccc(Cl)c(Cl)c2)c2ccccc12 |  | 0.121% (inactive) |  | 
49 | Cc1ccc2cc3c(NC(=O)Cc4ccco4)nn(C)c3nc2c1 | 0.668% (inactive) |  |  | 
50 | Cc1cc2nc3c(cc2cc1F)c(NC(=O)c1ccco1)nn3C |  |  | 57.3 µM | 
51 | O=C(CC1CCCCC1)Nc1nnc(-c2cccnc2)o1 |  | -0.002% (inactive) |  | 
52 | O=C(Nc1nnc(-c2ccc3c(c2)CCCC3)o1)C1CCC1 |  | 0.009% (inactive) |  | 
53 | O=C(Nc1nnc(C2CCCC2)o1)C1CCCCC1 | 0.003% (inactive) |  |  | 
54 | CCCCCCCCCC(=O)[C@H](O)CC (racemic) |  |  | 1.92 µM | 
55 | CC(C)(C)OC(=O)N1CCC(C(=O)Nc2nnc(-c3ccc4c(c3)OCCO4)o2)CC1 | 0.028% (inactive) |  |  | 
56 | CCn1nnnc1/N=C/c1ccc(N2CCCCC2)cc1 | 1.21% (inactive) |  |  | 
57 | Cc1ccc2cc3c(NC(=O)c4cc5ccccc5o4)nn(C)c3nc2c1 | -0.001% (inactive) |  |  | 
58 | O=C(Nc1nnc(-c2ccc(Cl)cc2)o1)C1CCCCC1 |  | 0.835% (inactive) |  | 
59 | O=c1ncn(-c2ccccc2)c2ccccc12 |  |  | 0.361 µM | 
60 | CCC(C)(C)C(=O)Nc1nnc(-c2ccc3c(c2)OCCO3)o1 |  | -0.001% (inactive) |  | 
61 | COC(=O)c1ccccc1Nc1cccc(Cl)c1 |  | 0.819% (inactive) |  | 
62 | O=c1ncn(-c2ccccc2Cl)c2ccccc12 |  | 5% (inactive) |  | 
63 | Cc1ccc2cc3c(NC(=O)c4ccc(C)o4)nn(C)c3nc2c1 | 8.61% (inactive) |  |  | 
64 | c1ccc(CNc2nnc(-c3ccc4c(c3)OCCO4)o2)cc1 | 0.006% (inactive) |  |  | 
65 | O=C(Cc1ccc(-c2ccccc2)cc1)N[C@@H]1CCOC1 (racemic) |  |  | 31.2 µM | 
66 | O=C(Cc1ccc(-c2ccccc2)cc1)NC1CNC1 | 0.006% (inactive) |  |  | 
67 | O=C(Nc1nnc(-c2ccc3c(c2)OCCO3)o1)C1CCCCCC1 |  |  | 9.05 µM | 
68 | O=c1ncn(-c2ccc(F)c(Cl)c2)c2ccccc12 |  |  | 5.38 µM | 
69 | Cn1ccc(NC(=O)c2ccco2)n1 | 0.057% (inactive) |  |  | 

Row | Structure (SMILES) | light induction (activation) ([1]; at 100 µM (top of the series)) | light induction (activation) ([1]; at 80 µM (top of the series)) | AC40 [2] | other results
70 | O=c1ncn(-c2cccc(Cl)c2)c2cccc(Cl)c12 |  | 0.081% (inactive) |  | 
71 | O=C1C(=O)N(Cc2ccccc2Cl)c2ccccc21 |  | 0.599% (inactive) |  | 
72 | O=C(Cc1ccc(-c2ccccc2)cc1)NC1COC1 | 32.6% (inactive) |  |  | 
73 | Cn1cnc(=O)c2ccccc21 |  | 0.063% (inactive) |  | 
74 | Cn1nc(NC(=O)c2ccco2)c2ccccc21 | 3.2% (inactive) |  |  | 
75 | Cn1nc(NC(=O)c2ccco2)c2cccnc21 |  |  | 44.1 µM | 
76 | COc1ccc(-c2nnc(NC(C)=O)o2)cc1 | 0.052% (inactive) |  |  | 
77 | Cc1ccc2cc3c(NC(=O)C4CCCC4)nn(C)c3nc2c1 |  |  | 59.3 µM | 
78 | COc1ccc(-n2cnc(=O)c3ccccc32)cc1Cl |  | 1.24% (inactive) |  | 
79 | CCn1nnnc1NC(C)c1ccc(N2CCCC2)cc1 (configuration not stated) |  |  | 34.7 µM | 
80 | O=C(Nc1nnc(-c2ccc3c(c2)OCCO3)o1)C1CCC1 | 0.014% (inactive) |  |  | 
81 | NC(=O)c1ccccc1Nc1ccccc1 |  | 1.21% (inactive) |  | 
82 | O=C(CC1CCCCC1)Nc1nnc(-c2ccc3c(c2)CCCC3)o1 |  |  |  | light induction (activation) ([1]; at 35 µM (top of the series)): 0.068% (inactive)
83 | Cc1ccc2c(=O)ncn(-c3cccc(Cl)c3)c2c1 |  | 0.092% (inactive) |  | 
84 | C(=N\c1nnc(-c2ccc3c(c2)OCCO3)o1)/c1ccccc1 | 0.005% (inactive) |  |  | 
85 | CCc1ccc2cc3c(NC(=O)c4ccco4)nn(C)c3nc2c1 |  |  | 42.1 µM | 
86 | O=C(Nc1nnc(-c2ccc3c(c2)OCCO3)o1)C1CCCCC1 |  |  | 5.8 µM and 1.96 µM | 
87 | COc1cccc(-n2cnc(=O)c3ccccc32)c1 |  | 12% (inactive) |  | 
88 | CN1CCC(C(=O)Nc2nnc(-c3ccc4c(c3)OCCO4)o2)CC1 | 0.046% (inactive) |  |  | 
89 | COc1ccc(-c2nnc(NC(=O)C3CCCCC3)o2)cc1 |  |  | > 100 µM (inactive) | 
90 | O=c1nc(Cc2ccccc2)n(-c2cccc(Cl)c2)c2ccccc12 |  | 17.7% (inactive) |  | 
91 | Cc1ccc2cc3c(NC(=O)c4cccs4)nn(C)c3nc2c1 |  |  | > 80 µM (inactive) | 
92 | O=c1ncn(-c2cccc(Cl)c2)c2cc(Cl)ccc12 |  | 0.848% (inactive) |  | 
